In patent US11957696B2 (Propella Therapeutics, Inc., priority 2021, dated 2024):
Read-outs that look alike come from different tables or passages of the source.

How the values were obtained:
[1] = DVS water uptake of abiraterone decanoate forms; assay type: physicochemical; conditions: Forms A, B, and C
[2] = Tissue uptake study: plasma and tissue concentrations of abiraterone and abiraterone decanoate after single IV or IM injection; assay type: in vivo, rats, strain CD [Crl:CD(SD)]; conditions: CD [Crl:CD(SD)], rat, intramuscular, 90 mg/kg
Protocol: The objective of this study is to collect tissue samples for the determination of the uptake of abiraterone decanoate and abiraterone following intravenous (IV) and intramuscular (IM; abiraterone decanoate only) injection. Additionally, blood steroid levels also were evaluated.
Vehicle for IM injection: Corn oil with 10% benzyl alcohol (w/v) and 20% benzyl benzoate (w/v). The study followed the protocols described below.
For intramuscular injections, the test article and vehicle will be administered once as a single intramuscular dose on Day 1 to animals in Groups 1 and 3. Doses will be administered via bolus intramuscular injection into the biceps femoris on the hind legs. The Test article will be warmed at 35° C. (±5°) for at least 1 hour prior to dosing. Individual doses will be based on the most recent body weights.
For IV injections, the test article will be administered once on Day 1 as a single intravenous bolus injection to animals in Groups 2 and 4. The test article will be administered via the tail vein as a bolus intravenous injection (less than 2 minutes). Individual doses will be based on the most recent body weights.
For serum steroid analysis, blood samples were collected from animals in each study group at predose and at terminal necropsy according to the following protocol. Animals were designated for 72 hr and 168 hr necropsy, the animals will be fasted overnight before scheduled blood collections. Plasma samples will be used for ACTH level analysis. Serum samples will be used for LH level analysis and steroid level analysis. Plasma samples will also be collected at various time points and be analyzed for abiraterone decanoate and abiraterone. Representative samples of tissues will be collected and snap frozen and analyzed. Lung, Liver, Adrenal glands, Prostate, Testes (Sample 1 and 2) and lymph nodes tissues will be collected. Lymph node(s) draining administration site(s): Inguinal (Groups 1-4) and Iliac (Groups 1 and 3 only). Lymph node, mandibular and Lymph node mesenteric tissues will also be collected.

Structure (SMILES): CCCCCCCCCC(=O)O[C@H]1CC[C@@]2(C)C(=CC[C@@H]3[C@@H]2CC[C@]2(C)C(c4cccnc4)=CC[C@@H]32)C1 [Abiraterone Decanoate, abiraterone decanoate]
- DVS Max H2O uptake [1]: N/A-non-hygroscopic
- concentration at 7 days ([2]; iliac lymph node, read-out: Decanoate concentration, iliac lymph): 91000 ng/g
- concentration at 7 days ([2]; inguinal lymph node, read-out: Decanoate concentration, Inguinal Lymph): 254 ng/g
- concentration at 7 days ([2]; liver, read-out: Decanoate concentration, Liver): 10.4 ng/g
- concentration at 7 days ([2]; lung, read-out: Decanoate concentration, Lung): 735 ng/g
- concentration at 7 days ([2]; male, adrenal, read-out: Decanoate concentration, Adrenal): 12.1 ng/g
- concentration at 7 days ([2]; male, plasma, read-out: Decanoate concentration, Plasma): 3.1 ng/mL
- concentration at 7 days ([2]; male, prostate, read-out: Decanoate concentration, Prostate): 0 ng/g
- concentration at 7 days ([2]; male, testes, read-out: Decanoate concentration, Testes): 1.3 ng/g
